Test results published in PubChem BioAssay AID1963444 (Molecular Pharmacology Branch, DTP, NCI, 2024).
Each block holds one compound with its values, some of them ahead of it.

System: HSSY-II complex spheroid growth, percent test/control
Test: Anticancer human tumor HSSY-II cell line growth inhibition [Asc];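 further: spheroids exposed to drug for 7 days before reading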
Settings: for IC50: curve of first compound; for viability, T/C: stronger effect = lower value
Description: Multicellular complex tumor spheroid response to apoptosis pathway targeting inhibitors Alrizomadlin, Pelcitoclax, and Dasminapant in combination with a variety of drugs and investigational agents in selected tumor cell lines
The MDM2 inhibitor alrizomadlin, the Bcl-2/Bcl-xL inhibitor pelcitoclax, and the IAPs inhibitor dasminapant were evaluated both individually and in combination with standard of care and investigational anticancer small molecules within a complex spheroid model of solid tumors. . Complex spheroids include a stromal component modeled by human endothelial cells (HUVEC) and fibroblasts modeled by human mesenchymal stem cells (MSCs). The concentration ranges selected for each drug and investigational agent were based upon clinically achievable concentrations if the clinical Cmax of the agent was known.
Compounds. The drugs and investigational agents: alrizomadlin (APG-115; NSC831270), pelcitoclax (APG-1252; NSC835773), dasminapant (APG-1387;NSC834197), TAK-243 (NSC785004), copanlisib (NSC809693), olaparib (NSC753686), talazoparib (NSC767125), cobimetinib (NSC 768068), eltanexor (KPT-8602, NSC 794443), abemaciclib (NSC 768073), sotorasib (NSC818433), adagrasib (NSC 831453), MRTX-1133 (NSC 836407), Iadademestat (ORY1001, NSC 806812), and RMC-4630 (NSC839698), were obtained from the NCI Developmental Therapeutics Program Chemical Repository. The FDA-approved anticancer drug set is available from the Developmental Therapeutics Program at https://dtp.cancer.gov/organization/dscb/obtaining/available plates.htm. […] The stock solutions were prepared in dimethyl sulfoxide (DMSO, Sigma-Aldrich, St. Louis, MO, cat. D2650) at 800-fold the tested concentration and stored at -70 degrees C prior to their use. All drugs and investigational agents were tested over a range starting from a high concentration at or near the clinical Cmax and decreasing in half-log increments. If the clinical Cmax for an agent had not been determined, the highest concentration tested was 10 microM.
The patient-derived cancer (PDC) cell lines include five colon adenocarcinomas: 186277-243-T-J2-PDC, 616215-338-R-J1-PDC, 439559-082-T-J2-PDC, 463943-066-T-J2-PDC, and 519858-162-T-J1-PDC; three pancreatic carcinomas: 323965-272-R-J2-PDC, 521955-158-R6-J3-PDC, and 521955-158-R2-J5-PDC; two uterine sarcomas: 327498-152-R-J2-PDC and 993429-296-R-J1-PDC; two rhabdomyosarcomas: 755483-174-R-J1-PDC and 772245-204-R-J1-PDC; two soft tissue sarcomas: 126254-015-R-J1-PDC and 494315-158-R-J1-PDC; two malignant fibrous histiocytomas: 317291-083-R-J1-PDC and 596521-263-R-J1-PDC; two breast carcinomas: 171881-019-R-J1-PDC and 885512-296-R-J2-PDC; and one ovarian carcinoma: 6556581-035-R-J-PDC were obtained from the NCI PDMR, (https://pdmr.cancer.gov). The established cell lines HSSY-2 synovial sarcoma (RRID:CVCL 8719), SYO-1 synovial sarcoma (RRID:CVCL_7146), MPNST malignant peripheral neural sheath tumor were obtained from the Sloan Kettering Institute. The following established cell lines were purchased from the American Type Culture Collection (ATCC, Manassas, VA), Sor the received from the NCI repository:, PANC-1 pancreatic carcinoma (CRL-1469, RRID:CVCL_0480), OVCAR-5 ovarian carcinoma (RRID:CVCL_1628), OVCAR-8 ovarian carcinoma (RRID:CVCL_1629), , MCF-7 breast carcinoma (CRL-12584, RRID:CVCL_0031), MDA-MB-231 breast carcinoma (CRL-12532, RRID:CVCL_0062), NCI-H1876 small cell lung carcinoma (CRL-5902, RRID:CVCL_1503), NCI-H510A small cell lung carcinoma (HTB-184, RRID:CVCL_1565), NCI-H1417 (CRL-5869, RRID:CVCL_1469), and NCI-H196 small cell lung carcinoma (CRL-5823, RRID:CVCL_1509). Dr. Peter Houghton (Greehey Children's Cancer Research Institute, University of Texas Health Science Center, San Antonio, TX) provided Rh-18 rhabdomyosarcoma (RRID:CVCL_1659). Pooled donor human umbilical vein endothelial cells (HUVEC, Lonza, cat. CC-2519) and human mesenchymal stem cells (hMSC, Lonza, cat. PT-2501) were purchased from Lonza (Walkersville, MD).
Cell Culture. […]

[1] = second compound 0.03 µM, first compound 0.00316 µM
[2] = second compound 0.03 µM, first compound 0.01 µM
[3] = second compound 0.03 µM, first compound 0.0316 µM
[4] = second compound 0.03 µM, first compound 0.1 µM
[5] = second compound 0.0949 µM, first compound 0.00316 µM
[6] = second compound 0.0949 µM, first compound 0.01 µM
[7] = second compound 0.0949 µM, first compound 0.0316 µM
[8] = second compound 0.0949 µM, first compound 0.1 µM
[9] = second compound 0.3 µM, first compound 0.00316 µM
[10] = second compound 0.3 µM, first compound 0.01 µM
[11] = second compound 0.3 µM, first compound 0.0316 µM
[12] = second compound 0.3 µM, first compound 0.1 µM
[13] = second compound 0.949 µM, first compound 0.00316 µM
[14] = second compound 0.949 µM, first compound 0.01 µM
[15] = second compound 0.949 µM, first compound 0.0316 µM
[16] = second compound 0.949 µM, first compound 0.1 µM
[17] = second compound 3 µM, first compound 0.00316 µM
[18] = second compound 3 µM, first compound 0.01 µM
[19] = second compound 3 µM, first compound 0.0316 µM
[20] = second compound 3 µM, first compound 0.1 µM

IC50 (second compound 0.03 µM): 83.5 nM | IC50 (second compound 0.0949 µM): 16.8 nM | IC50 (second compound 0.3 µM): < 3.16 nM | IC50 (second compound 0.949 µM): < 3.16 nM | IC50 (second compound 3 µM): < 3.16 nM
Structure (SMILES): CCN1CCN(Cc2ccc(Nc3ncc(F)c(-c4cc(F)c5nc(C)n(C(C)C)c5c4)n3)nc2)CC1 + CCN1C(C(=O)NC23CCC(C(=O)O)(CC2)CC3)C(c2cccc(Cl)c2F)C2(C(=O)Nc3cc(Cl)ccc32)C12CCCCC2
viability, T/C [1]: 90.3% | viability, T/C [2]: 72.4% | viability, T/C [3]: 58.7% | viability, T/C [4]: 49.1% | viability, T/C (second compound 0.03 µM, first compound 0.316 µM): 39.5% | viability, T/C (second compound 0.03 µM, first compound 1 µM): 22.7% | viability, T/C [5]: 63% | viability, T/C [6]: 57.5% | viability, T/C [7]: 41.1% | viability, T/C [8]: 34% | viability, T/C (second compound 0.0949 µM, first compound 0.316 µM): 26.1% | viability, T/C (second compound 0.0949 µM, first compound 1 µM): 12.1% | viability, T/C [9]: 27.4% | viability, T/C [10]: 22.6% | viability, T/C [11]: 24.6% | viability, T/C [12]: 19.2% | viability, T/C (second compound 0.3 µM, first compound 0.316 µM): 13.8% | viability, T/C (second compound 0.3 µM, first compound 1 µM): 5.79% | viability, T/C [13]: 8.49% | viability, T/C [14]: 8.58% | viability, T/C [15]: 8.12% | viability, T/C [16]: 6.47% | viability, T/C (second compound 0.949 µM, first compound 0.316 µM): 6.16% | viability, T/C (second compound 0.949 µM, first compound 1 µM): 3.21% | viability, T/C [17]: 2.42% | viability, T/C [18]: 2.83% | viability, T/C [19]: 2.95% | viability, T/C [20]: 2.31% | viability, T/C (second compound 3 µM, first compound 0.316 µM): 2.12% | viability, T/C (second compound 3 µM, first compound 1 µM): 4.53%

IC50 (second compound 0.03 µM): 10.5 nM | IC50 (second compound 0.0949 µM): 3.06 nM | IC50 (second compound 0.3 µM): < 0.949 nM | IC50 (second compound 0.949 µM): < 0.949 nM | IC50 (second compound 3 µM): < 0.949 nM
Structure (SMILES): NC(=O)C(=Cn1cnc(-c2cc(C(F)(F)F)cc(C(F)(F)F)c2)n1)c1cncnc1 + CCN1C(C(=O)NC23CCC(C(=O)O)(CC2)CC3)C(c2cccc(Cl)c2F)C2(C(=O)Nc3cc(Cl)ccc32)C12CCCCC2
viability, T/C (second compound 0.03 µM, first compound 0.000949 µM): 97.5% | viability, T/C (second compound 0.03 µM, first compound 0.003 µM): 76% | viability, T/C (second compound 0.03 µM, first compound 0.00949 µM): 51.1% | viability, T/C (second compound 0.03 µM, first compound 0.03 µM): 31.9% | viability, T/C (second compound 0.03 µM, first compound 0.0949 µM): 7.28% | viability, T/C (second compound 0.03 µM, first compound 0.3 µM): 0.44% | viability, T/C (second compound 0.0949 µM, first compound 0.000949 µM): 63.5% | viability, T/C (second compound 0.0949 µM, first compound 0.003 µM): 52.7% | viability, T/C (second compound 0.0949 µM, first compound 0.00949 µM): 26.6% | viability, T/C (second compound 0.0949 µM, first compound 0.03 µM): 15.9% | viability, T/C (second compound 0.0949 µM, first compound 0.0949 µM): 2.85% | viability, T/C (second compound 0.0949 µM, first compound 0.3 µM): 0.23% | viability, T/C (second compound 0.3 µM, first compound 0.000949 µM): 21.4% | viability, T/C (second compound 0.3 µM, first compound 0.003 µM): 18% | viability, T/C (second compound 0.3 µM, first compound 0.00949 µM): 11.6% | viability, T/C (second compound 0.3 µM, first compound 0.03 µM): 3.8% | viability, T/C (second compound 0.3 µM, first compound 0.0949 µM): 0.31% | viability, T/C (second compound 0.3 µM, first compound 0.3 µM): 0.12% | viability, T/C (second compound 0.949 µM, first compound 0.000949 µM): 7.25% | viability, T/C (second compound 0.949 µM, first compound 0.003 µM): 5.2% | viability, T/C (second compound 0.949 µM, first compound 0.00949 µM): 2.01% | viability, T/C (second compound 0.949 µM, first compound 0.03 µM): 0.49% | viability, T/C (second compound 0.949 µM, first compound 0.0949 µM): 0.03% | viability, T/C (second compound 0.949 µM, first compound 0.3 µM): 0.14% | viability, T/C (second compound 3 µM, first compound 0.000949 µM): 2.04% | viability, T/C (second compound 3 µM, first compound 0.003 µM): 1.1% | viability, T/C (second compound 3 µM, first compound 0.00949 µM): 0.3% | viability, T/C (second compound 3 µM, first compound 0.03 µM): 0.2% | viability, T/C (second compound 3 µM, first compound 0.0949 µM): 0.16% | viability, T/C (second compound 3 µM, first compound 0.3 µM): 0.26%

IC50 (second compound 0.03 µM): > 100 nM | IC50 (second compound 0.0949 µM): 2.07 nM | IC50 (second compound 0.3 µM): < 0.316 nM | IC50 (second compound 0.949 µM): < 0.316 nM | IC50 (second compound 3 µM): < 0.316 nM
Structure (SMILES): NC1CCC(NC2CC2c2ccccc2)CC1 (stereo not given) + CCN1C(C(=O)NC23CCC(C(=O)O)(CC2)CC3)C(c2cccc(Cl)c2F)C2(C(=O)Nc3cc(Cl)ccc32)C12CCCCC2
viability, T/C (second compound 0.03 µM, first compound 0.000316 µM): 61.3% | viability, T/C (second compound 0.03 µM, first compound 0.001 µM): 64% | viability, T/C [1]: 58.6% | viability, T/C [2]: 59.8% | viability, T/C [3]: 55.8% | viability, T/C [4]: 57% | viability, T/C (second compound 0.0949 µM, first compound 0.000316 µM): 51.2% | viability, T/C (second compound 0.0949 µM, first compound 0.001 µM): 51.1% | viability, T/C [5]: 49.1% | viability, T/C [6]: 47.7% | viability, T/C [7]: 51.1% | viability, T/C [8]: 44.3% | viability, T/C (second compound 0.3 µM, first compound 0.000316 µM): 27.9% | viability, T/C (second compound 0.3 µM, first compound 0.001 µM): 24.9% | viability, T/C [9]: 26.9% | viability, T/C [10]: 23.3% | viability, T/C [11]: 25.6% | viability, T/C [12]: 27% | viability, T/C (second compound 0.949 µM, first compound 0.000316 µM): 8.22% | viability, T/C (second compound 0.949 µM, first compound 0.001 µM): 6.71% | viability, T/C [13]: 6.88% | viability, T/C [14]: 6.14% | viability, T/C [15]: 7.47% | viability, T/C [16]: 6.92% | viability, T/C (second compound 3 µM, first compound 0.000316 µM): 1.71% | viability, T/C (second compound 3 µM, first compound 0.001 µM): 1.81% | viability, T/C [17]: 1.94% | viability, T/C [18]: 1.61% | viability, T/C [19]: 1.43% | viability, T/C [20]: 2.12%
